According to ChEMBL document CHEMBL1201862, “PubChem BioAssay data set” (2004):
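These data come from cells grown in 96-well plates and exposed to compound for 48 hours at five concentrations. The concentration for 50% growth inhibition is given as GI50.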 Calls of active or inactive are those of the source. No stated cut-off is given here; in the data, active = GI50 up to about 1.1 µM and inactive = higher.

What was measured:
Test in all cases: DTP human tumour cell line panel, 48 h
SK-MEL-5 = system: SK-MEL-5
K562 = system: K562
UO-31 = system: UO-31
SNB-75 = system: SNB-75
HT-29 = system: HT-29
A549 = system: A549
CCRF-CEM = system: CCRF-CEM
OVCAR-4 = system: OVCAR-4
SR = system: SR
OVCAR-5 = system: OVCAR-5
LOX IMVI = system: LOX IMVI
U-251 = system: U-251
LXFL 529 = system: LXFL 529
SK-MEL-28 = system: SK-MEL-28
SK-OV-3 = system: SK-OV-3
OVCAR-3 = system: OVCAR-3
RPMI-8226 = system: RPMI-8226

Measured: GI50

CCSC1=CC(Cc2ccc(OC)cc2)N(C(=O)OC)C1 (configuration not stated)
inactive: SK-MEL-5 49.4 µM | K562 34.3 µM | UO-31 > 100 µM | SNB-75 > 100 µM | HT-29 94.2 µM | A549 > 100 µM | CCRF-CEM 49.7 µM | OVCAR-4 > 100 µM | SR 26.3 µM | OVCAR-5 > 100 µM | LOX IMVI 36.3 µM | U-251 > 100 µM | LXFL 529 91.4 µM | SK-MEL-28 > 100 µM | SK-OV-3 > 100 µM | OVCAR-3 51.4 µM

C/C(=N/NC(=O)C(N)=O)C(CC(C(=O)Nc1ccccc1C)/C(C)=N\NC(=O)C(N)=O)C(=O)Nc1ccccc1C (configuration not stated)
inactive: SK-MEL-5 > 100 µM | RPMI-8226 > 100 µM | K562 > 100 µM | UO-31 70.5 µM | SNB-75 > 100 µM | HT-29 > 100 µM | A549 > 100 µM | CCRF-CEM > 100 µM | OVCAR-4 > 100 µM | OVCAR-5 > 100 µM | LOX IMVI > 100 µM | U-251 > 100 µM | LXFL 529 > 100 µM | SK-MEL-28 > 100 µM | SK-OV-3 > 100 µM | OVCAR-3 > 100 µM

CC(C)S(=O)(=O)ON1C(=O)c2ccc([N+](=O)[O-])cc2C1=O
inactive: SK-MEL-5 > 100 µM | K562 > 100 µM | UO-31 > 100 µM | SNB-75 > 100 µM | HT-29 > 100 µM | A549 > 100 µM | CCRF-CEM > 100 µM | OVCAR-4 > 100 µM | SR > 100 µM | OVCAR-5 > 100 µM | U-251 > 100 µM | LXFL 529 > 100 µM | SK-MEL-28 > 100 µM | SK-OV-3 > 100 µM | OVCAR-3 > 100 µM

CCCC/C=C1\CCC(C)(CN(C)C)C1=O (configuration not stated)
inactive: SK-MEL-5 > 100 µM | K562 > 100 µM | UO-31 > 100 µM | HT-29 > 100 µM | A549 > 100 µM | CCRF-CEM > 100 µM | OVCAR-4 > 100 µM | SR > 100 µM | OVCAR-5 > 100 µM | U-251 > 100 µM | LXFL 529 > 100 µM | SK-MEL-28 > 100 µM | OVCAR-3 > 100 µM

CCOc1ccc(NC(=O)CCc2nnc(SC)o2)cc1
inactive: SK-MEL-5 > 100 µM | K562 > 100 µM | UO-31 > 100 µM | SNB-75 > 100 µM | HT-29 > 100 µM | A549 > 100 µM | CCRF-CEM > 100 µM | OVCAR-4 > 100 µM | SR > 100 µM | OVCAR-5 > 100 µM | LOX IMVI > 100 µM | U-251 > 100 µM | LXFL 529 > 100 µM | SK-MEL-28 > 100 µM | SK-OV-3 > 100 µM | OVCAR-3 > 100 µM

COC(=O)N/N=C(\C)c1c(O)cc(C)oc1=O
inactive: SK-MEL-5 50.8 µM | K562 17.5 µM | UO-31 40.1 µM | SNB-75 > 100 µM | HT-29 65.3 µM | A549 29 µM | CCRF-CEM 46 µM | OVCAR-4 > 100 µM | SR 37.2 µM | LOX IMVI 7.85 µM | U-251 28.8 µM | LXFL 529 10.8 µM | SK-MEL-28 50.8 µM | SK-OV-3 > 100 µM

CCOc1ccc(/N=C/c2c3ccccc3nc3ccccc23)cc1
inactive: SK-MEL-5 38.9 µM | RPMI-8226 21.8 µM | K562 4.48 µM | UO-31 98.6 µM | SNB-75 44.8 µM | HT-29 21.8 µM | A549 74.6 µM | CCRF-CEM 3.59 µM | OVCAR-4 70 µM | OVCAR-5 > 10 µM | LOX IMVI 40.1 µM | U-251 > 100 µM | LXFL 529 24.7 µM | SK-MEL-28 > 100 µM | SK-OV-3 > 100 µM | OVCAR-3 31.1 µM

O=C(Nc1c(O)[nH]c(=S)[nH]c1=O)c1ccccc1F
inactive: SK-MEL-5 > 100 µM | RPMI-8226 > 100 µM | K562 > 100 µM | UO-31 > 100 µM | SNB-75 > 100 µM | HT-29 > 100 µM | A549 > 100 µM | CCRF-CEM > 100 µM | OVCAR-4 > 100 µM | SR > 100 µM | OVCAR-5 > 100 µM | LOX IMVI > 100 µM | U-251 > 100 µM | LXFL 529 > 100 µM | SK-MEL-28 > 100 µM | SK-OV-3 > 100 µM | OVCAR-3 > 100 µM

COC(=O)[C@@]12OC[C@]34C([C@@H](O)C1O)[C@@]1(C)CC(=O)C(OC(=O)/C=C(/c5ccccc5)C(F)(F)F)=C(C)C1C[C@H]3OC(=O)[C@H](O)[C@H]42 (some centres not stated)
inactive: SK-MEL-5 4.83 µM | RPMI-8226 2.06 µM | K562 9.4 µM | UO-31 35.7 µM | SNB-75 4.01 µM | HT-29 6.76 µM | A549 16.5 µM | CCRF-CEM 8.71 µM | OVCAR-4 17.7 µM | SR 3.29 µM | OVCAR-5 21.8 µM | U-251 6.68 µM | LXFL 529 7.35 µM | SK-MEL-28 5.31 µM | SK-OV-3 7.89 µM

CCCCCCCSCC1C(=O)C23C(O)C1CCC2C12COC3(O)C(O)C1C(C)(C)CCC2O (configuration not stated)
inactive: SK-MEL-5 12.1 µM | RPMI-8226 4.06 µM | K562 3.98 µM | UO-31 11.2 µM | SNB-75 21.2 µM | HT-29 13.5 µM | A549 18.7 µM | CCRF-CEM 2.75 µM | OVCAR-4 11.8 µM | SR 4.92 µM | OVCAR-5 17.5 µM | LOX IMVI 13.3 µM | U-251 10.7 µM | LXFL 529 2.37 µM | SK-MEL-28 9.51 µM | SK-OV-3 18.1 µM | OVCAR-3 16.7 µM

S=c1sc2c(S)nc(S)nc2n1-c1ccccc1
inactive: SK-MEL-5 > 100 µM | RPMI-8226 > 100 µM | K562 > 100 µM | UO-31 > 100 µM | SNB-75 69.8 µM | HT-29 > 100 µM | A549 > 100 µM | CCRF-CEM 80.2 µM | OVCAR-4 > 100 µM | SR > 100 µM | OVCAR-5 > 100 µM | LOX IMVI > 100 µM | U-251 > 100 µM | LXFL 529 > 100 µM | SK-MEL-28 > 100 µM | SK-OV-3 > 100 µM | OVCAR-3 > 100 µM

Cc1nc(C)c(C(=O)Nc2cccc3c2C(=O)NC3=O)cc1C(=O)Nc1cccc2c1C(=O)NC2=O
inactive: SK-MEL-5 > 100 µM | RPMI-8226 > 100 µM | K562 > 100 µM | UO-31 > 100 µM | SNB-75 > 100 µM | HT-29 > 100 µM | A549 > 100 µM | CCRF-CEM > 100 µM | OVCAR-4 > 100 µM | SR > 100 µM | OVCAR-5 > 100 µM | LOX IMVI > 100 µM | U-251 > 100 µM | LXFL 529 > 100 µM | SK-MEL-28 > 100 µM | SK-OV-3 > 100 µM | OVCAR-3 > 100 µM

C=CCCCCCCCCCCCC1CCC(CC)N1 (configuration not stated)
inactive: SK-MEL-5 10.2 µM | RPMI-8226 8.28 µM | K562 4.7 µM | UO-31 11.2 µM | SNB-75 14.4 µM | HT-29 3.67 µM | A549 10.3 µM | CCRF-CEM 8.3 µM | OVCAR-4 4.79 µM | SR 2.47 µM | OVCAR-5 10.6 µM | LOX IMVI 9.66 µM | U-251 10.9 µM | LXFL 529 12.7 µM | SK-MEL-28 15.7 µM | SK-OV-3 15.1 µM | OVCAR-3 9.44 µM

O=C1C2C3C=C4c5ccccc5N(c5ccccc5)C4(C2C(=O)N1c1ccc(Br)cc1)[C@H]1C(=O)N(c2ccc(Br)cc2)C(=O)[C@@H]31 (some centres not stated)
inactive: SK-MEL-5 > 100 µM | RPMI-8226 3.41 µM | K562 > 100 µM | UO-31 > 100 µM | SNB-75 > 100 µM | HT-29 > 100 µM | A549 > 100 µM | CCRF-CEM > 100 µM | OVCAR-4 > 100 µM | SR 38.9 µM | OVCAR-5 > 100 µM | LOX IMVI 87.9 µM | U-251 > 100 µM | LXFL 529 83.8 µM | SK-OV-3 > 100 µM | OVCAR-3 > 100 µM

COc1ccc(/N=C/c2ccc(N(CCC#N)S(=O)(=O)c3ccccc3)cc2)cc1
inactive: SK-MEL-5 > 100 µM | RPMI-8226 > 100 µM | K562 68.1 µM | UO-31 > 100 µM | SNB-75 > 100 µM | HT-29 > 100 µM | A549 > 100 µM | CCRF-CEM > 100 µM | OVCAR-4 > 100 µM | SR > 100 µM | OVCAR-5 > 100 µM | LOX IMVI > 100 µM | U-251 > 100 µM | LXFL 529 > 100 µM | SK-MEL-28 > 100 µM | SK-OV-3 > 100 µM | OVCAR-3 > 100 µM

CCCCCCCCCCCCCCCCOC(=O)c1cc(O)cc(C(=O)OCCCCCCCCCCCCCCCC)c1
inactive: SK-MEL-5 > 100 µM | RPMI-8226 > 100 µM | K562 > 100 µM | UO-31 > 100 µM | SNB-75 > 100 µM | HT-29 > 100 µM | A549 > 100 µM | CCRF-CEM > 100 µM | OVCAR-4 > 100 µM | OVCAR-5 > 100 µM | LOX IMVI > 100 µM | U-251 > 100 µM | LXFL 529 > 100 µM | SK-MEL-28 > 100 µM | SK-OV-3 > 100 µM | OVCAR-3 > 100 µM

COC(=O)C12C34C=CC5(CCC6(C=CC1(CC3)O6)C52C(=O)OC)O4 (configuration not stated)
inactive: K562 > 100 µM | HT-29 > 100 µM | A549 > 100 µM | CCRF-CEM > 100 µM | OVCAR-4 > 100 µM | SR > 100 µM | OVCAR-5 > 100 µM | LOX IMVI > 100 µM | U-251 > 100 µM | LXFL 529 > 100 µM | SK-MEL-28 > 100 µM | SK-OV-3 > 100 µM
